Activity calls are given as the source filed them. The calls are words filed in the database; no cut-off is given here.

The values that follow come from ChEMBL document CHEMBL2434948, “Discovery, synthesis, and characterization of an orally bioavailable, brain penetrant inhibitor of mixed lineage kinase 3” (J Med Chem, 2013).

Targets include Cytochrome P450 2C9 (Homo sapiens, UniProt P11712); Cytochrome P450 3A4 (Homo sapiens, UniProt P08684); Cytochrome P450 2D6 (Homo sapiens, UniProt P10635); Insulin receptor (Homo sapiens, UniProt P06213).
In assay [1] the target is Mitogen-activated protein kinase kinase kinase 11 (Mus musculus, UniProt Q80XI6).
Sequence of Mitogen-activated protein kinase kinase kinase 11 (Mus musculus, UniProt Q80XI6) (Q80XI6 whole entry): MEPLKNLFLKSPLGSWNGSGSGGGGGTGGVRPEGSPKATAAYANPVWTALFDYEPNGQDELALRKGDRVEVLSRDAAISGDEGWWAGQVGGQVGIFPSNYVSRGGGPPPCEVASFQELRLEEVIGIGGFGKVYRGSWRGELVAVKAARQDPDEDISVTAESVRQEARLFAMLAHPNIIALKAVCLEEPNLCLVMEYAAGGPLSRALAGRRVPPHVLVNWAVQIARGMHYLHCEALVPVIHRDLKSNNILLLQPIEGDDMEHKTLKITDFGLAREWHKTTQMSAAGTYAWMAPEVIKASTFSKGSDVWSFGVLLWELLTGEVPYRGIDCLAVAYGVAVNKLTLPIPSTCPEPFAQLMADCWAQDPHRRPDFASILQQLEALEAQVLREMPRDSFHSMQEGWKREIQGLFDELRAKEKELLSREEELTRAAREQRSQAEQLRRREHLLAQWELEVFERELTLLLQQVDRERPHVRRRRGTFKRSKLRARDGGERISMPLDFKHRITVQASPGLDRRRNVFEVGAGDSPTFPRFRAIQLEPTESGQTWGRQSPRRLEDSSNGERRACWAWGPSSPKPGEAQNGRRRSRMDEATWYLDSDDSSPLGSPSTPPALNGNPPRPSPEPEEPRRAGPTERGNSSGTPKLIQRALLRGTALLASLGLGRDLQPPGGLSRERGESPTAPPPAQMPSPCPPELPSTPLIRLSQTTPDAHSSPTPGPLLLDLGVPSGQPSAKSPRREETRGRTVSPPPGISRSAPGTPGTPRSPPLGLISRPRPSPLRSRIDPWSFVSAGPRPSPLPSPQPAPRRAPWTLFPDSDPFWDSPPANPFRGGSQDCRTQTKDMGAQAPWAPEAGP
The target in assay [2] is Receptor-type tyrosine-protein kinase FLT3 (Homo sapiens) (UniProt P36888). Put plainly: Inhibition of wild type human FLT3 at 1 umol by high throughput ATP-[33P] radiolabeled assay relative to control.
In assay [3] the target is T1, Mitogen-activated protein kinase kinase kinase 11 (Homo sapiens, UniProt Q16584).
Description: Inhibition of MLK3 (unknown origin) after 20 mins by scintillation counting analysis in presence of [33P]-ATP
The target of assay [4] is T2, Leucine-rich repeat serine/threonine-protein kinase 2 (Homo sapiens, UniProt Q5S007).
T2 sequence (Q5S007 whole entry): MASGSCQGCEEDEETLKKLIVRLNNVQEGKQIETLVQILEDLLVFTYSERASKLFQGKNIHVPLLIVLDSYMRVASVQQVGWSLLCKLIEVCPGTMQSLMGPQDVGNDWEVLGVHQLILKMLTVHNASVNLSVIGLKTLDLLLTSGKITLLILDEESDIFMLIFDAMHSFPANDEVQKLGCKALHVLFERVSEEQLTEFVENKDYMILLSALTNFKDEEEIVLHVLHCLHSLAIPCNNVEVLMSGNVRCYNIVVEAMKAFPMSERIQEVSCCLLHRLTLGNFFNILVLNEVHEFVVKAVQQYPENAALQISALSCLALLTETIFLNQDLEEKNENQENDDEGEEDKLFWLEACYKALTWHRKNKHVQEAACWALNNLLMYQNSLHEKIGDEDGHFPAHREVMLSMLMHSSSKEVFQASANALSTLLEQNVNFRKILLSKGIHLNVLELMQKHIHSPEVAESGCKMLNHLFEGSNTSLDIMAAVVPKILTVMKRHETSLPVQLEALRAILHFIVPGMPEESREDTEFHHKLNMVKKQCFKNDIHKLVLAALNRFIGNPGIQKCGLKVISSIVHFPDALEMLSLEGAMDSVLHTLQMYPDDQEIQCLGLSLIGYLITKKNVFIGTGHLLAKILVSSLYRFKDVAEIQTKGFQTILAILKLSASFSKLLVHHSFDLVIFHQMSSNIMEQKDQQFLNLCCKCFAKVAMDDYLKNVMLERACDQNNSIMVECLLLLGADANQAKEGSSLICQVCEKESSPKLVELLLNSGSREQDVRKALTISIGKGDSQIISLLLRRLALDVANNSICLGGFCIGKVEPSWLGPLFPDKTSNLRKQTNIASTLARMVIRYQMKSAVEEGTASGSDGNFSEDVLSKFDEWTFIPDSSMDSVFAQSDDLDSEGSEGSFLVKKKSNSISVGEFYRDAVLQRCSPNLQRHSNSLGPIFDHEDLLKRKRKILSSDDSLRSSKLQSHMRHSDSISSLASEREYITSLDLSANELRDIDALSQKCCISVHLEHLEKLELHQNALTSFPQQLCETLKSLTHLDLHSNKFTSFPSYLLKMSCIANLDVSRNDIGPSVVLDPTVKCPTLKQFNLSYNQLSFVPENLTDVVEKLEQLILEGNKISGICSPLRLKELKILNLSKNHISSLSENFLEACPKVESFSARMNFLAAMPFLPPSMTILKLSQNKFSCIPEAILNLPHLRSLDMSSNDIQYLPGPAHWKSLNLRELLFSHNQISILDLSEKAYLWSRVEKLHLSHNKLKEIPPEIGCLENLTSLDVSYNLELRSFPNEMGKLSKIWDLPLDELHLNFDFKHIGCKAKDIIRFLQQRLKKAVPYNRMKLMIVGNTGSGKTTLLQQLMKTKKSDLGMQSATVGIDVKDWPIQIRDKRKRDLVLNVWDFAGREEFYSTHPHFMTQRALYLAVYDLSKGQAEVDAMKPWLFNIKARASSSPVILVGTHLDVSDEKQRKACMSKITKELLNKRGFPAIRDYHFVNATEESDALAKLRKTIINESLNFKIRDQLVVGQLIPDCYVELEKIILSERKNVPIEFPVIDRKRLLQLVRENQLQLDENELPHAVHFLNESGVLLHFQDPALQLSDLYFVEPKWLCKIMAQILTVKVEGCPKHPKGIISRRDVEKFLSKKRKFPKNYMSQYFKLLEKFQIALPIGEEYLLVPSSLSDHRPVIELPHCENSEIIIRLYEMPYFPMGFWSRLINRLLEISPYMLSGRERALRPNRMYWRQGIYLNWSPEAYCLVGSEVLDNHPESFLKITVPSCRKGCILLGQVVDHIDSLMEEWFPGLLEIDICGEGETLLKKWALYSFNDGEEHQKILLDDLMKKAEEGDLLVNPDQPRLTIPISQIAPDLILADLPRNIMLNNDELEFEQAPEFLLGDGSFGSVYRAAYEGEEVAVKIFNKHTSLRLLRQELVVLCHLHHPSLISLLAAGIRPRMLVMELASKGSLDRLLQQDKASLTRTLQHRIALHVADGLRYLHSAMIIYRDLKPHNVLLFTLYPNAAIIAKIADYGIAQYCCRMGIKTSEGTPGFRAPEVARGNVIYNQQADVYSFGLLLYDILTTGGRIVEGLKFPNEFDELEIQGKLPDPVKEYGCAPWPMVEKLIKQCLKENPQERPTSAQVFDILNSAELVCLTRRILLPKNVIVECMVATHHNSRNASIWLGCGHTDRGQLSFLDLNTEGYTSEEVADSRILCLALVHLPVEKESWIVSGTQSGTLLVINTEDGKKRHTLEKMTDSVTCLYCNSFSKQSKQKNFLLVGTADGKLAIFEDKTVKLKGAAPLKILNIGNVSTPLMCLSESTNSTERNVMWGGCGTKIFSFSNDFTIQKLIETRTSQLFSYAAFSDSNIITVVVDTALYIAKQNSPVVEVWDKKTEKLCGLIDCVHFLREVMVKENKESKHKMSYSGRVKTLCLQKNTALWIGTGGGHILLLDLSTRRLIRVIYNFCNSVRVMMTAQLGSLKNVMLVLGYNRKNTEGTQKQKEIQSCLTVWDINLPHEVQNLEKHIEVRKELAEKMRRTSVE
Description: Inhibition of human wild type LRRK2 by qPCR analysis
The target in assay [5] is T3, Receptor-type tyrosine-protein kinase FLT3 (Homo sapiens, UniProt P36888).
T3 sequence (P36888 whole entry): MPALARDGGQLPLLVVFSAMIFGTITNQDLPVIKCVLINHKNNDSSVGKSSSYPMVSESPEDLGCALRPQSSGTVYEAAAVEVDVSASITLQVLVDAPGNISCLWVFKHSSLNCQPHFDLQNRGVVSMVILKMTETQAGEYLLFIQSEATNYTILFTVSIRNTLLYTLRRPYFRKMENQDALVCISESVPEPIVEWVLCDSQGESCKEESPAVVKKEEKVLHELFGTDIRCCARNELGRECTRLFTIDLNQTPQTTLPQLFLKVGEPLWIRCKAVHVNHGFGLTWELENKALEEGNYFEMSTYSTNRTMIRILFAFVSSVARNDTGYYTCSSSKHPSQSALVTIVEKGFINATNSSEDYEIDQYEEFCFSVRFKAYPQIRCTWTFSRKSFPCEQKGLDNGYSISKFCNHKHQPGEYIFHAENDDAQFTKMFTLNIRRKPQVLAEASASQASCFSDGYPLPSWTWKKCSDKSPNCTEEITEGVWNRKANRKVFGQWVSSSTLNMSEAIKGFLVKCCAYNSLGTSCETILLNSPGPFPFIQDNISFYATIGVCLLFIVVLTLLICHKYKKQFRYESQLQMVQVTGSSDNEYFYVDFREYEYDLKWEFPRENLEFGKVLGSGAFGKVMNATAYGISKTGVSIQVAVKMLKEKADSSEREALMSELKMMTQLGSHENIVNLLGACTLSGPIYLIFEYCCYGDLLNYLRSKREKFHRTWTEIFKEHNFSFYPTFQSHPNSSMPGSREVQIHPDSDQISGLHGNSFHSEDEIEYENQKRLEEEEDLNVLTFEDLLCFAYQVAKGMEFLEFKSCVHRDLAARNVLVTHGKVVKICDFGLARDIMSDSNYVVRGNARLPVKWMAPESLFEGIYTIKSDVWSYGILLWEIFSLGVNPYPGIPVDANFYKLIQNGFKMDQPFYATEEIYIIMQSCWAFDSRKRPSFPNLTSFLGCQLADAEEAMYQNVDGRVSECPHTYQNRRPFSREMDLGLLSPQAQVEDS
Description: Inhibition of wild type human FLT3 by high throughput ATP-[33P] radiolabeled assay

Assay [6] deals with Inhibitor of nuclear factor kappa-B kinase subunit beta (Homo sapiens, UniProt O14920).
Description: Inhibition of wild type human IKKb by high throughput ATP-[33P] radiolabeled assay
In assay [7] the target is T3, Receptor-type tyrosine-protein kinase FLT3. Put plainly: cell-based.
Description: Inhibition of FLT3-L-stimulated wild type full length human FLT3 autophosphorylation expressed in MEF preincubated for 90 mins followed by FLT3-L stimulation measured after 5 mins by ELISA
The target of assay [8] is Tyrosine-protein kinase ABL1 (Homo sapiens, UniProt P00519, T315I).
Description: Inhibition of wild type human ABL1 T315I mutant by high throughput ATP-[33P] radiolabeled assay
Assay [9] concerns the target Inhibitor of nuclear factor kappa-B kinase subunit alpha (Homo sapiens, UniProt O15111).
Description: Inhibition of wild type human IKKa by high throughput ATP-[33P] radiolabeled assay
In assay [10] the target is Cyclin-dependent kinase 2 (Homo sapiens, UniProt P24941).
Description: Inhibition of wild type human CDK2 by high throughput ATP-[33P] radiolabeled assay
Assay [11] has as its target T4, Mitogen-activated protein kinase kinase kinase 9 (Homo sapiens, UniProt P80192). Put plainly: Inhibition of human wild type MLK1 at 1 uM by qPCR analysis relative to control.
In assay [12] the target is T4, Mitogen-activated protein kinase kinase kinase 9.
Description: Inhibition of MLK1 (unknown origin) after 20 mins in presence of [33P]-ATP
Assay [13] concerns the target Calcium/calmodulin-dependent protein kinase type II subunit delta (Homo sapiens) (UniProt Q13557). Put plainly: Inhibition of human wild type CAMK2D at 1 uM by qPCR analysis relative to control. (In general: In qPCR the cycle at which signal appears reflects the starting amount.)
In assay [14] the target is T5, Tyrosine-protein kinase ABL1 (Homo sapiens, UniProt P00519). Put plainly: Inhibition of human ABL1 mutant at 1 uM by qPCR analysis.
Assay [15] has as its target 5'-AMP-activated protein kinase catalytic subunit alpha-2 (Homo sapiens) (UniProt P54646). Put plainly: Inhibition of human wild type AMPKalpha2 at 1 uM by qPCR analysis relative to control.
For assay [16], the target named is T1, Mitogen-activated protein kinase kinase kinase 11. The source holds these as a separate data set.
Description: Inhibition of MLK3 (unknown origin) after 20 mins in presence of [33P]-ATP
Assay [17] has as its target Mast/stem cell growth factor receptor Kit (Homo sapiens) (UniProt P10721). In words: Inhibition of human wild type KIT at 1 uM by qPCR analysis relative to control.
Assay [18] deals with Ribosomal protein S6 kinase alpha-1 (Homo sapiens) (UniProt Q15418). In words: Inhibition of human wild type RSK1 at 1 uM by qPCR analysis.
Assay [19] has as its target Receptor-type tyrosine-protein kinase FLT3 (Homo sapiens) (UniProt P36888). In words: Inhibition of human wild type FLT3 at 1 uM by qPCR analysis relative to control.
Assay [20] has as its target T5, Tyrosine-protein kinase ABL1. In words: Inhibition of human wild type ABL1 at 1 uM by qPCR analysis relative to control.
Assay [21] concerns Leucine-rich repeat serine/threonine-protein kinase 2 (Homo sapiens), Q5S007 [G2019S]. In words: Inhibition of human LRRK2 G2019S mutant at 1 uM by qPCR analysis relative to control.
Sequence of Leucine-rich repeat serine/threonine-protein kinase 2 (Homo sapiens), Q5S007 [G2019S] (Q5S007 whole entry G2019S): as the sequence (Q5S007 whole entry) above, with G2019S counted along it
In assay [22] the target is Serine/threonine-protein kinase BRSK2 (Homo sapiens) (UniProt Q8IWQ3). Put plainly: Inhibition of human wild type BRSK2 at 1 uM by qPCR analysis relative to control.
The target of assay [23] is Calcium/calmodulin-dependent protein kinase type II subunit alpha (Homo sapiens) (UniProt Q9UQM7). Put plainly: Inhibition of human wild type CAMK2A at 1 uM by qPCR analysis relative to control.
For assay [24], the target named is Aurora kinase C (Homo sapiens) (UniProt Q9UQB9). In words: Inhibition of human wild type Aurora kinase C at 1 uM by qPCR analysis relative to control.
For assay [25], the target named is Mitogen-activated protein kinase kinase kinase 10 (Homo sapiens, UniProt Q02779).
Description: Inhibition of MLK2 (unknown origin) after 20 mins in presence of [33P]-ATP
The target in assay [26] is Mitogen-activated protein kinase kinase kinase kinase 4 (Homo sapiens) (UniProt O95819). In words: Binding affinity to human wild type MAP4K4 at 1 uM by qPCR analysis.
The target in assay [27] is T2, Leucine-rich repeat serine/threonine-protein kinase 2. Put plainly: Inhibition of human wild type LRRK2 at 1 uM by qPCR analysis relative to control.
Assay [28] addresses Calcium/calmodulin-dependent protein kinase type 1D (Homo sapiens) (UniProt Q8IU85). In words: Inhibition of human wild type CAMK1D at 1 uM by qPCR analysis relative to control.
The target in assay [29] is Aurora kinase A (Homo sapiens) (UniProt O14965). Put plainly: Inhibition of human wild type Aurora kinase A at 1 uM by qPCR analysis relative to control.
The target in assay [30] is Ribosomal protein S6 kinase alpha-6 (Homo sapiens) (UniProt Q9UK32). Put plainly: Inhibition of human wild type RSK4 at 1 uM by qPCR analysis.
The target of assay [31] is TRAF2 and NCK-interacting protein kinase (Homo sapiens) (UniProt Q9UKE5). In words: Binding affinity to human wild type TNIK at 1 uM by qPCR analysis.

Sequence of Cytochrome P450 3A4 (P08684 whole entry): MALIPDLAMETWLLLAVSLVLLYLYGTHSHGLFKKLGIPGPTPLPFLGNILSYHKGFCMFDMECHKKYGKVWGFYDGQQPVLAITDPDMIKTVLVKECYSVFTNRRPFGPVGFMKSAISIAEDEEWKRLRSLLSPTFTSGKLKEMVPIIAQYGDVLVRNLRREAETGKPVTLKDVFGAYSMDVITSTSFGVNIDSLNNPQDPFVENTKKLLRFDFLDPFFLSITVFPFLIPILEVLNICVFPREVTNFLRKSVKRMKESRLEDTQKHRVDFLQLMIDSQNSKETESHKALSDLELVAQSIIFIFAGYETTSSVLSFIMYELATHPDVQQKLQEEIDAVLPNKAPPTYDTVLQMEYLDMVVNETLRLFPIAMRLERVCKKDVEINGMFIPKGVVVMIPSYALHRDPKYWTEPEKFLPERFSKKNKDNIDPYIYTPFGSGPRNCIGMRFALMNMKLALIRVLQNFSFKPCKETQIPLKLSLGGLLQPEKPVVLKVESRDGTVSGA
Sequence of Cytochrome P450 2C9 (P11712 whole entry): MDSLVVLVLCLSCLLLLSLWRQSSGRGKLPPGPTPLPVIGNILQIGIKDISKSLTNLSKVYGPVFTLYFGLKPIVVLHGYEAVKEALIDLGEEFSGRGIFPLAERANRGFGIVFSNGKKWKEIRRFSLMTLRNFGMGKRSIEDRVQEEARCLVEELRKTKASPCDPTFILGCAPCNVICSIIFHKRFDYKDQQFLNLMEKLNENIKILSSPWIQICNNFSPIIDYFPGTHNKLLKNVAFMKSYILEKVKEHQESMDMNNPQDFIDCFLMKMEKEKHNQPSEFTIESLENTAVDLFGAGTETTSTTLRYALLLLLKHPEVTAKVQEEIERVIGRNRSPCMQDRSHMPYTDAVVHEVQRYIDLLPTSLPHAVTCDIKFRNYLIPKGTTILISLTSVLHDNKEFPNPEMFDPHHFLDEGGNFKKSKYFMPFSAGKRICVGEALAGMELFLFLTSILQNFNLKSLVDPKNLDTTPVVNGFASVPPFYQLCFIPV
Sequence of Cytochrome P450 2D6 (P10635 whole entry): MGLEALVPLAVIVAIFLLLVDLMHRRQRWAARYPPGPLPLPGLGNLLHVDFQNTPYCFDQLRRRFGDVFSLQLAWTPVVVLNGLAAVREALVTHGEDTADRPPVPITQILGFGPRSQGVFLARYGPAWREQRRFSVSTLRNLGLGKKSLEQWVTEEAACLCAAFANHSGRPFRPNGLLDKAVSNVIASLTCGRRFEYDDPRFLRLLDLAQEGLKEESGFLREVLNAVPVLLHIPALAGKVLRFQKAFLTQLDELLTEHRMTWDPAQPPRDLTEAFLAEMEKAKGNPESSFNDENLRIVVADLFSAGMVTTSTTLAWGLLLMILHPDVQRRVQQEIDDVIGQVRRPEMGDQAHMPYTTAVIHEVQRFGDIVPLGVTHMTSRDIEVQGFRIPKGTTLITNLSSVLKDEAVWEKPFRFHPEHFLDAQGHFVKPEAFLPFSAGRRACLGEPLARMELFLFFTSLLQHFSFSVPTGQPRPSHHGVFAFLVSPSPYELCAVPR
Description for Cytochrome P450 2C9: Inhibition of CYP2C9 in human liver microsomes assessed as inhibition of midazolam metabolism by HPLC/MS analysis
Description for Cytochrome P450 2D6: Inhibition of CYP2D6 in human liver microsomes assessed as inhibition of diclofenac metabolism by HPLC/MS analysis
Description for Cytochrome P450 3A4: Inhibition of CYP3A4 in human liver microsomes assessed as inhibition of dextromethorphan metabolism by HPLC/MS analysis
Description for Insulin receptor: Inhibition of wild type human IR by high throughput ATP-[33P] radiolabeled assay

Consider `COc1cc(-c2cnc3[nH]cc(-c4ccc5[nH]ccc5c4)c3c2)cc(OC)c1OC`, for which the IC50 (in general, the point on the concentration scale where inhibition reaches its midpoint) was 2700 nM in [1]; 3 nM in assay [3]; greater than 30000 nM at Cytochrome P450 2C9; greater than 30000 nM against Cytochrome P450 3A4; greater than 30000 nM against Cytochrome P450 2D6; 35 nM in assay [4]. Further, in [2], the inhibition (usually the drop in the measured response relative to a control, in per cent) is 98%.
Regarding `Nc1ccc(-c2cnc3[nH]cc(-c4ccc5[nH]ccc5c4)c3c2)cn1`, the IC50 is 430 nM in assay [1]; 19 nM in assay [3]; 13700 nM on Cytochrome P450 2C9; 4200 nM at Cytochrome P450 3A4; 3700 nM at Cytochrome P450 2D6; 46 nM in assay [4]. Further, the inhibition in [2] came out at 98%.
In the case of `CN1CCN(Cc2ccc(-c3cnc4[nH]cc(-c5cnc6[nH]ccc6c5)c4c3)cc2)CC1`, the IC50 is 9.5 nM in assay [5]; 288 nM in [6]; 21 nM in [3]; 730 nM in assay [7]; 285 nM in assay [8]; 330 nM in [9]. In addition, the half-inhibitory concentration (IC50) against Insulin receptor was found to be 1290 nM; in assay [10] it was 720 nM.
As to `COc1cc(-c2cnc3[nH]cc(-c4cnc(N)nc4)c3c2)cc(OC)c1OC`, the IC50 is 990 nM in assay [1]; 9 nM in assay [3]; greater than 30000 nM on Cytochrome P450 2C9; greater than 30000 nM on Cytochrome P450 3A4; greater than 30000 nM at Cytochrome P450 2D6.
Consider `CCSCc1ccc2c(c1)c1c3c(c4c5cc(CSCC)ccc5n5c4c1n2[C@H]1C[C@](O)(C(=O)OC)[C@]5(C)O1)CNC3=O` [CEP-1347], for which the inhibition in [11] was greater than 99%; in assay [13], 87%; in [15], 98%; in assay [17] it was greater than 99%; in [19] it was greater than 99%; in assay [21] it was 98%. Also, the inhibition in [22] was 94%; in assay [23], 84%; in assay [24], greater than 99%; in assay [27], 100%; in assay [28], greater than 99%; in assay [29], greater than 99%. The IC50 in [12] was less than 1 nM; in assay [16] it was 6 nM; in assay [25] it was 2 nM. Also, the inhibition entry in assay [14] and in assay [20] was “inactive” each time. The inhibition entry in assay [18], in [26], in assay [30] and in assay [31] was “Active” throughout.
Turning to `COc1cc(-c2cnc3[nH]cc(-c4ccc(N)nc4)c3c2)cc(OC)c1OC`, the IC50 in [1] is 120 nM; in assay [3], 7 nM; against Cytochrome P450 2C9 it was greater than 30000 nM; at Cytochrome P450 3A4 it was greater than 30000 nM; against Cytochrome P450 2D6, greater than 30000 nM; in assay [4], 5 nM. For the same molecule, the inhibition in assay [2] is 99%.
With `Nc1ncc(-c2cnc3[nH]cc(-c4ccc5[nH]ccc5c4)c3c2)cn1`, the half-maximal inhibitory concentration (IC50) in [1] was 510 nM; in assay [3], 78 nM; at Cytochrome P450 2C9 it was greater than 30000 nM; against Cytochrome P450 3A4 it was 21800 nM; on Cytochrome P450 2D6 it was 13200 nM. In addition, the inhibition in assay [2] was 97%.
With `COc1cc(-c2cnc3[nH]c(=O)n(-c4ccc5[nH]ccc5c4)c3n2)cc(OC)c1OC`, in [2], the inhibition was 88%. Also, the half-inhibitory concentration (IC50) in assay [4] amounted to 2970 nM.
